Values belong to the molecule of their own block, whether it stands above or below them. Active and inactive are the calls of the source. The rule behind the calls is not given here.
Legend:
NOMO-1 = test: Antiproliferative activity against human NOMO-1 cells after 72 hrs by MTT assay; type: functional, cell-based; details: NOMO-1, 72 h
U-937 [1] = test: Antiproliferative activity against human U-937 cells after 72 hrs by MTT assay; type: functional, cell-based; details: U-937, 72 h
[2] = Antiproliferative activity against human MA9.3RAS cells after 72 hrs by MTT assay; type: functional, cell-based
[3] = Antiproliferative activity against human MA9.3ITD cells after 72 hrs by MTT assay; type: functional, cell-based
U-937 [4] = test: Binding affinity towards METTL16 in human U-937 cells at 0.1 to 500 uM and measured by drug affinity responsive target stability (DARTS) assay; type: cell-based; details: dose 0.1-500 µM
U-937 [5] = test: Inhibition of METTL16 in human U-937 cells at 10 to 20 nM assessed as increase in global m6A levels measured after 48 hrs; type: cell-based; details: dose 10-20 nM
HL-60 = test: Antiproliferative activity against human HL-60 cells after 72 hrs by MTT assay; type: functional, cell-based; details: HL-60, 72 h
Kasumi 1 [6] = test: Inhibition of METTL16 in human Kasumi 1 cells at 10 to 20 nM assessed as increase in global m6A levels measured after 48 hrs; type: cell-based; details: dose 10-20 nM
Kasumi 1 [7] = test: Antiproliferative activity against human Kasumi 1 cells after 72 hrs by MTT assay; type: functional, cell-based; details: Kasumi 1, 72 h
HEL = test: Antiproliferative activity against human HEL cells after 72 hrs by MTT assay; type: functional, cell-based
HeLa = test: Antiproliferative activity against human HeLa cells after 72 hrs by MTT assay; type: functional, cell-based
MONO-MAC-6 = test: Antiproliferative activity against human MONO-MAC-6 cells after 72 hrs by MTT assay; type: functional, cell-based; details: MONO-MAC-6, 72 h
RS4-11 = test: Antiproliferative activity against human RS4-11 cells after 72 hrs by MTT assay; type: functional, cell-based; details: RS4-11, 72 h
DG-75 = test: Antiproliferative activity against human DG-75 cells after 72 hrs by MTT assay; type: functional, cell-based; details: DG-75, 72 h
CA46 = test: Antiproliferative activity against human CA46 cells after 72 hrs by MTT assay; type: functional, cell-based; details: CA46, 72 h
U-937 [8] = test: Binding affinity towards METTL16 in human U-937 cells at 0.1 to 500 uM and measured by cellular thermal shift assay (CETSA); type: cell-based; details: dose 0.1-500 µM
T98G = test: Antiproliferative activity against human T98G cells after 72 hrs by MTT assay; type: functional, cell-based
COLO357 = test: Antiproliferative activity against human COLO357 cells after 72 hrs by MTT assay; type: functional, cell-based; details: COLO357, 72 h
SUP-B15 = test: Antiproliferative activity against human SUP-B15 cells after 72 hrs by MTT assay; type: functional, cell-based; details: SUP-B15, 72 h
LN-229 = test: Antiproliferative activity against human LN-229 cells after 72 hrs by MTT assay; type: functional, cell-based; details: LN-229, 72 h
MA9.3RAS = test: Inhibition of METTL16 in human MA9.3RAS cells at 10 to 20 nM assessed as increase in global m6A levels measured after 48 hrs; type: cell-based; details: dose 10-20 nM
U-87 MG = test: Antiproliferative activity against human U-87 MG cells after 72 hrs by MTT assay; type: functional, cell-based, U-87MG ATCC
A 172 = test: Antiproliferative activity against human A-172 cells after 72 hrs by MTT assay; type: functional, cell-based; details: A 172, 72 h

IC50 (U-937 [1]): 36 nM
SMILES: Nc1ccc(CO)c(Cn2ccc3c4c(N)nc(N)nc4ccc32)c1
IC50 (NOMO-1): 55 nM
IC50 [2]: 70 nM
IC50 [3]: 54 nM

IC50 (U-937 [1]): 23 nM
SMILES: Nc1ccc(Cn2ccc3c4c(N)nc(N)nc4ccc32)c(CO)c1
IC50 [2]: 45 nM
IC50 [3]: 47 nM

IC50 (HL-60): 32.6 nM
IC50 (U-937 [1]): 9.63 nM
IC50 (HeLa): 64 nM
IC50 (RS4-11): 37 nM
IC50 (COLO357): 1030 nM
IC50 (U-87 MG): 20900 nM
SMILES: Nc1ccc(Cn2ccc3c4c(N)nc(N)nc4ccc32)cc1
Activity (U-937 [4]): Active
inhibition (U-937 [5]): Active
inhibition (Kasumi 1 [6]): Active
IC50 (Kasumi 1 [7]): 13 nM
IC50 (HEL): 15.4 nM
IC50 (MONO-MAC-6): 28 nM
IC50 [2]: 16.1 nM
IC50 (DG-75): 44 nM
IC50 (CA46): 109 nM
Activity (U-937 [8]): Active
IC50 (T98G): 10800 nM
IC50 (SUP-B15): 13 nM
IC50 (LN-229): 558 nM
inhibition (MA9.3RAS): Active
IC50 (A 172): 682 nM
IC50 [3]: 15.7 nM

— ChEMBL document CHEMBL5050855, “Mettl16 inhibitors and uses thereof” (2021)
